{"source": "patent US8546340B2", "about": "“Soothing pharmaceutical or cosmetic composition comprising a peptide that activates HMG-CoA reductase” (ISP Investments Inc., priority 2008, dated 2013)", "key": {"[1]": {"tested_on": "HMG-CoA reductase", "assay": "Expression of HMG-CoA reductase in normal human keratinocytes (immunofluorescence)", "format": "cell-based", "settings": "peptide 0.5 ppm (1% of 50 ppm stock), 24 or 48 hours", "experimental": "Protocol: Normal human keratinocytes in culture are treated with a 1% stock solution at 50 ppm of peptide SEQ ID No. 5 for 24 or 48 hours (the medium in the presence of the active ingredient is changed every 24 hours). The cells are then washed and fixed in cold methanol for 4 minutes at 4° C. The cells are incubated in the presence of a polyclonal rabbit antibody specific for HMG-CoA reductase (Millipore, Upstate), and then a secondary antibody coupled with a fluorescent dye. The cells are then examined by epifluorescence microscope (Nikon Eclipse E600 microscope)."}, "[2]": {"tested_on": "interleukin-1 alpha", "assay": "Ex vivo IL-1 alpha secretion by human skin biopsies (ELISA)", "format": "cell-based", "settings": "peptide 0.5 ppm 24 h, vs controls untreated by the peptide", "experimental": "Protocol: 5 mm-diameter biopsies of human skin are maintained in culture at the air-liquid interface in the presence of standard culture medium. The samples are treated with a 1% dilution of a solution at 50 ppm of peptide SEQ ID No. 5 for 24 hours, and then irradiated by UVB radiation (200 mJ/cm^2) and put back in culture for 24 hours, or subjected to contact with SDS at 2.5% for 24 hours in the presence of the same concentration of peptide SEQ ID No. 5. Controls untreated by the peptide are carried out under the same conditions. At the end of the experiment, the quantity of interleukin-1 alpha salted out in the culture medium is assayed by the ELISA technique."}}, "note": "No end group written: not given here."}
{"substance": "Ala-Gly-Glu-Leu-Ser-NH2 (AGELS-NH2) [Peptide SEQ ID No. 5]", "values": [{"measurement": "expression of HMG-CoA reductase (cytoplasmic fluorescence, microscopic observation)", "setting": "[1]", "value": "more intense cytoplasmic fluorescence"}, {"measurement": "reduction of quantity of IL-1 alpha salted out in culture medium", "setting": "[2]; SDS 2.5% for 24 hours with peptide", "value": 58, "unit": "%"}, {"measurement": "reduction of quantity of IL-1 alpha salted out in culture medium", "setting": "[2]; UVB 200 mJ/cm^2, then 24 h culture", "value": 40, "unit": "%"}]}
